Data taken from patent publication US20230001083A1, “ACTUATABLE DEVICE FOR PULSATILE DRUG DELIVERY” (Massachusetts Institute of Technology, priority 2019, published 2023).
Read-outs that look alike come from different tables or passages of the source.

Experiments:
[1] = Stability of drug formulation stored in the pump at 37° C.; assay type: physicochemical; conditions: stored in the pump at 37° C. for 4 weeks
[2] = In vivo pharmacokinetics of lisinopril, pump versus subcutaneous injection; conditions: for Cmax: plasma, read-out: maximum plasma concentration (Cmax)
Experimental: The time taken to reach the Cmax (Tmax) was 30 min in both groups. […] Drug leakage in the implanted pump was not detected during the non-actuation periods over a 28-day period.

Cmax ([2]; other: implanted pump, Pump-lisinopril group)	Cmax ([2]; sc, Inj-lisinopril group (subcutaneous injection))	area under the curve of plasma lisinopril concentration versus time (AUC) ([2]; pump group)	area under the curve of plasma lisinopril concentration versus time (AUC) ([2]; subcutaneous injection group)	Structure (SMILES)	stability of formulation in the pump [1]
				CC(C)C[C@H]1C(=O)N2CCC[C@H]2[C@]2(O)O[C@](NC(=O)[C@@H]3C=C4c5cccc6[nH]c(Br)c(c56)C[C@H]4N(C)C3)(C(C)C)C(=O)N12 [bromocriptine]	stable without apparent denaturation
394 ± 83.2 ng/mL	323 ± 64.7 ng/mL	25335.5 ± 7640.9 ng·min/mL	24484.5 ± 5643.8 ng·min/mL	NCCCC[C@H](N[C@@H](CCc1ccccc1)C(=O)O)C(=O)N1CCC[C@H]1C(=O)O [lisinopril]	
